target: ASK1 (Apoptosis Signal-Regulating Kinase 1) (Homo sapiens (Human), UniProt Q99683); assay: ASK1 (Apoptosis Signal-Regulating Kinase 1) TR-FRET Kinase Assay (Biochemical IC50); settings: not given
Sequence (Q99683 649-946): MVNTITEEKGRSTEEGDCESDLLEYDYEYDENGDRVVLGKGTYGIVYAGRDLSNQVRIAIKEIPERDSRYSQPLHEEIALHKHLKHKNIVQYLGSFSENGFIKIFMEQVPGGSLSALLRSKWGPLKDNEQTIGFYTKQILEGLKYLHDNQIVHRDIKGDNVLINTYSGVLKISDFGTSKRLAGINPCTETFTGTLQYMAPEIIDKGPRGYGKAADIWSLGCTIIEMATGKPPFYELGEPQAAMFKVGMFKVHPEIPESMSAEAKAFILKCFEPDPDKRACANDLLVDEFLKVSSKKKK

| Structure (SMILES) | IC50 [nM] |
| --- | --- |
| Cc1ccc2c(-c3ccc(C4CC4)nc3)cc(C(=O)Nc3cccc(-c4nncn4C4CC4)c3)nc2c1C [Example 240, N-(3-(4-cyclopropyl-4H-1,2,4-triazol-3-yl)phenyl)-4-(6-cyclopropylpyridin-3-yl)-7,8-dimethylquinoline-2-carboxamide] | 222 |

same assay, conditions: TR-FRET, biotin-MBP substrate, 20 min pre-incubation, ATP added as 300 μM solution

| Structure (SMILES) | IC50 [nM] |
| --- | --- |
| O=C(Nc1cccc(-c2nncn2C2CC2)c1)c1cc(-n2cnc(C(F)(F)F)c2)ccn1 [Example 44, N-(3-(4-cyclopropyl-4H-1,2,4-triazol-3-yl)phenyl)-4-(4-(trifluoromethyl)-1H-imidazol-1-yl)picolinamide] | 27 |
| CC(C)n1cnnc1-c1cccc(NC(=O)c2cc(-c3cccnc3)ccn2)c1 [Example 180, N-(3-(4-isopropyl-4H-1,2,4-triazol-3-yl)phenyl)-3,4′-bipyridine-2′-carboxamide] | 27 |
| O=C(Nc1cc(-c2nncn2C2CC2)ccn1)c1cc(-c2cccnc2)ccn1 [Example 164, N-(4-(4-cyclopropyl-4H-1,2,4-triazol-3-yl)pyridin-2-yl)-3,4′-bipyridine-2′-carboxamide] | 18 |
| CC(C)[C@H](C)n1cnnc1-c1cccc(NC(=O)c2cc(-c3ccc(C4CC4)nc3)ccn2)c1 [Example 238, (S)-6-cyclopropyl-N-(3-(4-(3-methylbutan-2-yl)-4H-1,2,4-triazol-3-yl)phenyl)-3,4′-bipyridine-2′-carboxamide] | 6 |
| C[C@@H](c1ccccc1)n1cnnc1-c1cccc(NC(=O)c2cccc(-n3cnc(C4CC4)c3)c2)n1 [Example 214, (S)-3-(4-cyclopropyl-1H-imidazol-1-yl)-N-(6-(4-(1-phenylethyl)-4H-1,2,4-triazol-3-yl)pyridin-2-yl)benzamide] | 159 |
| O=C(Nc1cccc(-c2nncn2C2CC2)n1)c1ccc(Cl)c(-n2cnc(C3CC3)c2)c1 [Example 227, 4-chloro-3-(4-cyclopropyl-1H-imidazol-1-yl)-N-(6-(4-cyclopropyl-4H-1,2,4-triazol-3-yl)pyridin-2-yl)benzamide] | 8 |
| O=C(Nc1cccc(-c2nncn2C2CC2)n1)c1cc(-n2cnc3c2CCCC3)ccn1 [Example 187, N-(6-(4-cyclopropyl-4H-1,2,4-triazol-3-yl)pyridin-2-yl)-4-(4,5,6,7-tetrahydro-1H-benzo[d]imidazol-1-yl)picolinamide] | 4 |
| O=C(Nc1cccc(-c2cncn2C2CC2)n1)c1cc(-c2ccc(C3CC3)nc2)ccn1 [Example 127, 6-cyclopropyl-N-(6-(1-cyclopropyl-1H-imidazol-5-yl)pyridin-2-yl)-3,4′-bipyridine-2′-carboxamide] | 211 |
| COc1ccc(-c2ccc(C3CC3)nc2)cc1C(=O)Nc1cccc(-c2nncn2C2CC2)c1 [Example 271, N-(3-(4-cyclopropyl-4H-1,2,4-triazol-3-yl)phenyl)-5-(6-cyclopropylpyridin-3-yl)-2-methoxybenzamide] | 24 |
| CC(C)n1cnnc1-c1cccc(NC(=O)c2cc(-c3ccc(C4CC4)nc3)ccn2)n1 [Example 176, 6-cyclopropyl-N-(6-(4-isopropyl-4H-1,2,4-triazol-3-yl)pyridin-2-yl)-3,4′-bipyridine-2′-carboxamide] | 13 |
| C[C@H](CO)n1cnnc1-c1cccc(NC(=O)c2cc(-c3cccnc3)ccn2)c1 [Example 19, (R)-N-(3-(4-(1-hydroxypropan-2-yl)-4H-1,2,4-triazol-3-yl)phenyl)-3,4′-bipyridine-2′-carboxamide] | 9 |
| O=C(Nc1cccc(-c2nncn2C2CC2)n1)c1cc(-n2cnc(C(O)C(F)(F)F)c2)ccn1 (stereo not drawn) [Example 207, N-(6-(4-cyclopropyl-4H-1,2,4-triazol-3-yl)pyridin-2-yl)-4-(4-(2,2,2-trifluoro-1-hydroxyethyl)-1H-imidazol-1-yl)picolinamide] | 11 |
| CNS(=O)(=O)c1ccc(-c2ccnc(C(=O)Nc3cccc(-c4nncn4C4CC4)n3)c2)cc1 [Example 111, N-(6-(4-cyclopropyl-4H-1,2,4-triazol-3-yl)pyridin-2-yl)-4-(4-(N-methylsulfamoyl)phenyl)picolinamide] | 9 |
| O=C(Nc1cccc(-c2nncn2C2CC2)c1)c1cc(-n2ncnc2C2CC2)ccn1 [Example 203, 4-(5-cyclopropyl-1H-1,2,4-triazol-1-yl)-N-(3-(4-cyclopropyl-4H-1,2,4-triazol-3-yl)phenyl)picolinamide] | 538 |
| O=C(Nc1cccc(-c2nncn2C2CC2)c1)c1cc(-c2cnc(C3CC3)c(F)c2)ccn1 [Example 134, 6-cyclopropyl-N-(3-(4-cyclopropyl-4H-1,2,4-triazol-3-yl)phenyl)-5-fluoro-3,4′-bipyridine-2′-carboxamide] | 34 |
| O=C(Nc1cccc(-c2nncn2C2CC2)n1)c1cc(N2CCCC(O)C2)ccn1 (stereo not drawn) [Example 175, N-(6-(4-cyclopropyl-4H-1,2,4-triazol-3-yl)pyridin-2-yl)-4-(3-hydroxypiperidin-1-yl)picolinamide] | 10 |
| CC(C)c1cn(-c2ccnc(C(=O)Nc3cccc(-c4nncn4C4CC4)n3)c2)cn1 [Example 167, N-(6-(4-cyclopropyl-4H-1,2,4-triazol-3-yl)pyridin-2-yl)-4-(4-isopropyl-1H-imidazol-1-yl)picolinamide] | 7 |
| CCS(=O)(=O)c1ccc(-c2ccnc(C(=O)Nc3cccc(-c4nncn4C4CC4)c3)c2)cc1 [Example 117, N-(3-(4-cyclopropyl-4H-1,2,4-triazol-3-yl)phenyl)-4-(4-(ethylsulfonyl)phenyl)picolinamide] | 12 |

| Structure (SMILES) | IC50 [nM] |
| --- | --- |
| O=C(Nc1cccc(-c2nncn2C2CC2)c1)c1cc(-n2cnc(-c3ccccc3)c2)ccn1 [Example 38, N-(3-(4-cyclopropyl-4H-1,2,4-triazol-3-yl)phenyl)-4-(4-phenyl-1H-imidazol-1-yl)picolinamide] | 17 |
| CCc1ccc(-c2ccnc(C(=O)Nc3cccc(-c4nncn4C4CC4)c3)c2)cn1 [Example 106, N-(3-(4-cyclopropyl-4H-1,2,4-triazol-3-yl)phenyl)-6-ethyl-3,4′-bipyridine-2′-carboxamide] | 8 |
| O=C(Nc1cccc(-c2nncn2C2CC2)c1)c1cc(-c2ccc(-c3ccc(Cl)nc3)nc2)ccn1 [Example 70, 6-Chloro-[3,2′:5′,4′]terpyridine-2″-carboxylic acid [3-(4-cyclopropyl-4H-[1,2,4]triazol-3-yl)-phenyl]-amide] | 106 |
| C[C@H](O)[C@H](C)n1cnnc1-c1cccc(NC(=O)c2cc(-c3ccc(C4CC4)nc3)ccn2)n1 [Example 246, 6-cyclopropyl-N-(6-(4-((2S,3S)-3-hydroxybutan-2-yl)-4H-1,2,4-triazol-3-yl)pyridin-2-yl)-3,4′-bipyridine-2′-carboxamide] | 6 |
| O=C(Nc1cccc(-c2nncn2C2CC2)c1)c1cc(-c2cccnc2)cc(C(F)(F)F)n1 [Example 124, N-(3-(4-cyclopropyl-4H-1,2,4-triazol-3-yl)phenyl)-6′-(trifluoromethyl)-3,4′-bipyridine-2′-carboxamide] | 422 |
| Cc1cn(-c2ccnc(C(=O)Nc3cccc(-c4nncn4C4CC4)c3)c2)cn1 [Example 42, N-(3-(4-cyclopropyl-4H-1,2,4-triazol-3-yl)phenyl)-4-(4-methyl-1H-imidazol-1-yl)picolinamide] | 11 |
| O=C(Nc1cccc(-c2nncn2C2CC2)n1)c1ccnc(-c2ccc(C3CC3)nc2)c1 [Example 260, 6′-cyclopropyl-N-(6-(4-cyclopropyl-4H-1,2,4-triazol-3-yl)pyridin-2-yl)-2,3′-bipyridine-4-carboxamide] | 30 |
| CC(C)c1ccc(-c2ccnc(C(=O)Nc3cccc(-c4nncn4C4CC4)c3)c2)cn1 [Example 102, N-(3-(4-cyclopropyl-4H-1,2,4-triazol-3-yl)phenyl)-6-isopropyl-3,4′-bipyridine-2′-carboxamide] | 9 |
| O=C(Nc1cccc(-c2nncn2C2CC2)c1)c1cc(-c2cccnc2)c2ccccc2n1 [Example 80, N-(3-(4-cyclopropyl-4H-1,2,4-triazol-3-yl)phenyl)-4-(pyridin-3-yl)quinoline-2-carboxamide] | 36 |
| O=C(Nc1ccnc(-c2nncn2C2CC2)c1)c1cc(-c2ccc(C3CC3)nc2)ccn1 [Example 152, 6-cyclopropyl-N-(2-(4-cyclopropyl-4H-1,2,4-triazol-3-yl)pyridin-4-yl)-3,4′-bipyridine-2′-carboxamide] | 286 |
| Cc1ccc(-n2cnc(C3CC3)c2)cc1C(=O)Nc1cccc(-c2nncn2C2CC2)n1 [Example 197, 5-(4-cyclopropyl-1H-imidazol-1-yl)-N-(6-(4-cyclopropyl-4H-1,2,4-triazol-3-yl)pyridin-2-yl)-2-methylbenzamide] | 47 |
| COc1cncc(-c2ccnc(C(=O)Nc3cccc(-c4nncn4C)c3)c2)c1 [Example 11, 5-methoxy-N-(3-(4-methyl-4H-1,2,4-triazol-3-yl)phenyl)-3,4′-bipyridine-2′-carboxamide] | 40 |
| O=C(Nc1cccc(-c2nncn2C2CC2)n1)c1cc(-c2cnc3ccccc3c2)ccn1 [Example 112, N-(6-(4-cyclopropyl-4H-1,2,4-triazol-3-yl)pyridin-2-yl)-4-(quinolin-3-yl)picolinamide] | 14 |
| Nc1ccc(-c2ccnc(C(=O)Nc3cccc(-c4nncn4C4CC4)c3)c2)cn1 [Example 22, 6-amino-N-(3-(4-cyclopropyl-4H-1,2,4-triazol-3-yl)phenyl)-3,4′-bipyridine-2′-carboxamide] | 9 |
| O=C(Nc1cccc(-c2nncn2C2CC2)c1)c1cc(-n2cnc(C3CC3)n2)ccn1 [Example 202, 4-(3-cyclopropyl-1H-1,2,4-triazol-1-yl)-N-(3-(4-cyclopropyl-4H-1,2,4-triazol-3-yl)phenyl)picolinamide] | 17 |
| O=C(Nc1cccc(-c2nncn2C2CC2)c1)c1cc(-c2cnc3ccoc3c2)ccn1 [Example 142, N-(3-(4-cyclopropyl-4H-1,2,4-triazol-3-yl)phenyl)-4-(furo[3,2-b]pyridin-6-yl)picolinamide] | 11 |
| O=C(Nc1cccc(-c2nncn2C2CC2)c1)c1cc(-n2cnc3cccnc32)ccn1 [Example 82, N-(3-(4-cyclopropyl-4H-1,2,4-triazol-3-yl)phenyl)-4-(3H-imidazo[4,5-b]pyridin-3-yl)picolinamide] | 20 |
